The values that follow come from ChEMBL document CHEMBL4483862, “Open-source discovery of chemical leads for next-generation chemoprotective antimalarials” (2018).

By IC50 is commonly meant the concentration needed to halve the response being measured. For orientation: IC90 means the concentration at which the effect reaches the 90% level.

For the assay, the system named is Plasmodium berghei. Kind of assay: Luciferase/luciferin-expressing antifolate-resistant parasites were used to infect a culture of HepG2 cells that were pre-incubated with compounds. Infected hepatocytes emit light due to the luciferase reaction. Assay results are presented as the percent inhibition of light emission compared to control. […]. The class given is functional. The note with it: sporozoite; for IC90: read-out: LUCIFERASE INFECTION ASSAY - IC90.

The mark [1] stands for this setting: read-out: LUCIFERASE INFECTION ASSAY - IC50.

In the case of `CCCNC(=O)c1c(NC(=O)c2ccc(F)c(F)c2F)nc2ccccn12`, the 90% effect concentration (IC90) is more than 8.77 µM. Besides, the 50% inhibitory concentration (IC50) (HEPG2TOX_HILL_SLOPE 5.13, HEPG2TOX_R_SQUARED 0.252, PBLUC_HILL_SLOPE 2.06, PBLUC_R_SQUARED 0.791, read-out: LUCIFERASE INFECTION ASSAY - IC50) was 6.47 µM.

As to `COc1ccc(OC)c(CCNc2nc3cnc(-c4ccc(OC)nc4)cc3n2C)c1`, the IC90 was 2.85 µM. For the setting “HEPG2TOX_HILL_SLOPE 1.95, HEPG2TOX_R_SQUARED 0.873, PBLUC_HILL_SLOPE 2.34, PBLUC_R_SQUARED 0.799, read-out: LUCIFERASE INFECTION ASSAY - IC50”, the half-inhibitory concentration (IC50) came to 1.11 µM.

On to `CC(C)(C)c1ccc(-c2n[nH]c(NC(=O)c3ccccc3Cl)c2Br)cc1`, for which the IC90 was more than 7.63 µM. In addition, where the note is “PBLUC_HILL_SLOPE 11.9, PBLUC_R_SQUARED 0.175, read-out: LUCIFERASE INFECTION ASSAY - IC50”, the 50% inhibitory concentration (IC50) was determined as 7.07 µM.

`O=C(Nc1cccc2c[nH]nc12)c1cn(-c2ccccc2Br)nn1`: the 90% effect concentration (IC90) is more than 10 µM. The IC50 under setting [1] is more than 10 µM.

Take `COc1ccc(-c2csc3ncnc(NCCCCCc4n[nH]c(N)c4C#N)c23)cc1`: the IC90 stood at 3.53 µM. The IC50 (HEPG2TOX_HILL_SLOPE 1.47, HEPG2TOX_R_SQUARED 0.942, PBLUC_HILL_SLOPE 36.2, PBLUC_R_SQUARED 0.623, read-out: LUCIFERASE INFECTION ASSAY - IC50) came to 3.33 µM.

Turning to `CCCN(CC(=O)Nc1ccc(Cl)cc1Cl)C(=O)c1cn2ccccc2n1`, the 90% effect concentration (IC90) was more than 10 µM. In addition, the half-maximal inhibitory concentration (IC50) (HEPG2TOX_HILL_SLOPE 2.93, HEPG2TOX_R_SQUARED 0.207, PBLUC_HILL_SLOPE 1.46, PBLUC_R_SQUARED 0.174, read-out: LUCIFERASE INFECTION ASSAY - IC50) is more than 10 µM.

For `CCC(C)(C)c1ccc(Oc2ccc(NC(=O)COC(=O)c3ccc(Cl)c(S(N)(=O)=O)c3)cc2)cc1`, the concentration for an effect of 90% (IC90) was more than 10 µM. Also, the IC50 (PBLUC_HILL_SLOPE 2.55, PBLUC_R_SQUARED 0.138, read-out: LUCIFERASE INFECTION ASSAY - IC50) is 5.78 µM.

With `CC(C)c1ccc(OCC(=O)NC2CCCCCCC2)cc1`, the 90% effect concentration (IC90) was more than 10.9 µM. Besides, for the setting “PBLUC_HILL_SLOPE 1.5, PBLUC_R_SQUARED 0.0788, read-out: LUCIFERASE INFECTION ASSAY - IC50”, the half-inhibitory concentration (IC50) was more than 10.9 µM.

In the case of `CCCN(C(=O)c1ccccc1CCc1ccccc1)c1nc(-c2ccc(Cl)cc2Cl)cs1`, the concentration for an effect of 90% (IC90) was more than 10 µM. Further, the IC50 under setting [1] was more than 10 µM.

`COC(=O)C(C(=O)CSc1nnc(-c2ccc(C(C)(C)C)cc2)n1C)=C1Nc2ccccc2N1`: the IC90 is more than 10 µM. Also, the IC50 under setting [1] is more than 10 µM.

`Cc1ccc(C)c(S(=O)(=O)N(Cc2nnc(-c3ccc(Cl)cc3)o2)c2cccc(C(F)(F)F)c2)c1`: the concentration for an effect of 90% (IC90) is more than 10 µM. The half-maximal inhibitory concentration (IC50) under setting [1] is more than 10 µM.

As for `CCCCn1nc(C)c(C(=O)Nc2nc3ccccc3[nH]2)c1Cl`, the concentration for an effect of 90% (IC90) is more than 10 µM. The IC50 (PBLUC_HILL_SLOPE 0.43, PBLUC_R_SQUARED 0.84, read-out: LUCIFERASE INFECTION ASSAY - IC50) turned out to be 0.0912 µM.

With `COc1ccc(NC(=O)c2cccc(C3(CNCc4ccc(F)c(F)c4)CC3)c2)cn1`, the 90% effect concentration (IC90) is more than 10 µM. Where the note is “PBLUC_HILL_SLOPE 17.1, PBLUC_R_SQUARED 0.0793, read-out: LUCIFERASE INFECTION ASSAY - IC50”, the half-inhibitory concentration (IC50) was 9.92 µM.

For the compound `CN(Cc1ccccc1N1CCCCC1)C(=O)c1ccc(NC(=O)C2CC2)cc1`, the 90% effect concentration (IC90) came to 3.37 µM. Moreover, under setting [1], the half-inhibitory concentration (IC50) worked out at 2.9 µM.

With `CC(C)(C)C1CCc2nc3ccccc3c(C(=O)OCC(=O)c3ccc(Cl)s3)c2C1` (stereo not given), the IC90 was more than 10 µM. Besides, the IC50 under setting [1] is more than 10 µM.

Take `O=C1N=C(NC2CCCCC2)S/C1=C\c1cccc(C(F)(F)F)c1`: the IC90 is more than 10 µM. Besides, the IC50 under setting [1] was more than 10 µM.

`CN1N=C2c3ccccc3CCC2C1c1ccc(Cl)cc1` (stereo not given): the IC90 worked out at 4 µM. Also, the IC50 (PBLUC_HILL_SLOPE 2.13, PBLUC_R_SQUARED 0.455, read-out: LUCIFERASE INFECTION ASSAY - IC50) was 1.42 µM.

On to `O=[N+]([O-])c1c(Sc2ccc(Cl)cc2)ccc2nsnc12`, for which the IC90 is 8.49 µM. In addition, where the note is “FFLUC_HILL_SLOPE 1.96, FFLUC_R_SQUARED 0.577, HEPG2TOX_HILL_SLOPE 12.8, HEPG2TOX_R_SQUARED 0.787, PBLUC_HILL_SLOPE 2.81, PBLUC_R_SQUARED 0.465, read-out: LUCIFERASE INFECTION ASSAY - IC50”, the IC50 came out at 3.88 µM.

`CCc1cccc(CC)c1N=C(S)NC(C)c1ccccc1` (stereo not given): the concentration for an effect of 90% (IC90) was more than 10 µM. Moreover, under setting [1], the IC50 was more than 10 µM.

As for `Cn1c(=O)c(C2=NN(C(=O)c3cccs3)C(c3ccco3)C2)c(-c2ccccc2)c2cc(Cl)ccc21` (stereo not given), the concentration for an effect of 90% (IC90) is more than 10 µM. In addition, the IC50 (FFLUC_HILL_SLOPE 47.1, FFLUC_R_SQUARED 0.757, PBLUC_HILL_SLOPE 11.3, PBLUC_R_SQUARED 0.251, read-out: LUCIFERASE INFECTION ASSAY - IC50) was determined as 9.29 µM.

With `CN(C)C(S)=Nc1ccc(Cl)cc1`, the IC90 was more than 15.4 µM. The IC50 under setting [1] is more than 15.4 µM.

For `COc1ccc(CNc2ncnc3scc(-c4ccccc4)c23)cc1OC`, the IC90 worked out at 9.56 µM. For the same compound, the IC50 (HEPG2TOX_HILL_SLOPE 0.633, HEPG2TOX_R_SQUARED 0.925, PBLUC_HILL_SLOPE 1.59, PBLUC_R_SQUARED 0.666, read-out: LUCIFERASE INFECTION ASSAY - IC50) was determined as 2.4 µM.

As for `O=C(C1CCCCC1)N1N=C2/C(=C/c3ccco3)CCCC2C1c1ccco1` (stereo not given), the IC90 was more than 10 µM. Also, under setting [1], the IC50 is more than 10 µM.

On to `CC(CN1CCC2(CC1)C(=O)N(Cc1ccccn1)C(=O)N2Cc1ccccc1)c1ccccc1` (stereo not given), for which the 90% effect concentration (IC90) is more than 7.04 µM. Moreover, under “PBLUC_HILL_SLOPE 2.23, PBLUC_R_SQUARED 0.302, read-out: LUCIFERASE INFECTION ASSAY - IC50”, the IC50 was more than 7.04 µM.

With `Cc1cc2nc(Nc3cccc(Cl)c3)c3ccccc3n2n1`, the concentration for an effect of 90% (IC90) was more than 10 µM. Further, the half-maximal inhibitory concentration (IC50) (HEPG2TOX_HILL_SLOPE 10.5, HEPG2TOX_R_SQUARED 0.708, PBLUC_HILL_SLOPE 3.62, PBLUC_R_SQUARED 0.793, read-out: LUCIFERASE INFECTION ASSAY - IC50) was found to be 7.73 µM.

Turning to `Clc1ccccc1-c1nc2ccnc(NCCc3ccccc3)c2[nH]1`, the 90% effect concentration (IC90) amounted to 7.97 µM. For the same compound, the IC50 (HEPG2TOX_HILL_SLOPE 0.707, HEPG2TOX_R_SQUARED 0.751, PBLUC_HILL_SLOPE 2.17, PBLUC_R_SQUARED 0.665, read-out: LUCIFERASE INFECTION ASSAY - IC50) was determined as 2.9 µM.

Turning to `Clc1ccc(SCc2cc(N3CCOCC3)nc(-c3ccccn3)n2)cc1`, the IC90 turned out to be 4.86 µM. The IC50 under setting [1] was found to be 4.81 µM.

For `Cn1c(Sc2ncnc3sccc23)nc2ccccc21`, the concentration for an effect of 90% (IC90) turned out to be 5.38 µM. Further, under “PBLUC_HILL_SLOPE 9.4, PBLUC_R_SQUARED 0.756, read-out: LUCIFERASE INFECTION ASSAY - IC50”, the concentration for half-maximal inhibition (IC50) worked out at 4.26 µM.

Turning to `O=C(Nc1ccc(Cl)c(Cl)c1)Nc1ccc2c(c1)OCCO2`, the IC90 was more than 9.73 µM. In addition, the IC50 under setting [1] was more than 9.73 µM.

As to `CC(C)c1ccc(NC(=O)CCCc2ccccc2)cc1`, the 90% effect concentration (IC90) was more than 11.7 µM. Further, the IC50 under setting [1] is more than 11.7 µM.

Take `COc1ccc(NC(=O)c2cccc(S(=O)(=O)N(Cc3ccccc3)c3ccccc3Cl)c2)cn1`: the IC90 is more than 10 µM. The half-maximal inhibitory concentration (IC50) (PBLUC_HILL_SLOPE 11, PBLUC_R_SQUARED 0.0841, read-out: LUCIFERASE INFECTION ASSAY - IC50) amounted to 9.79 µM.

In the case of `CC(C)(C)c1ccc(C(=N)NOC(=O)c2sccc2Cl)cc1`, the IC90 worked out at 2.4 µM. Moreover, the half-inhibitory concentration (IC50) (FFLUC_HILL_SLOPE 2.56, FFLUC_R_SQUARED 0.405, HEPG2TOX_HILL_SLOPE 0.0994, HEPG2TOX_R_SQUARED 0.101, PBLUC_HILL_SLOPE 0.809, PBLUC_R_SQUARED 0.834, read-out: LUCIFERASE INFECTION ASSAY - IC50) is 0.159 µM.

Take `CC(C)(C(=O)NCc1ccccc1Br)n1cc(-c2ccc(OCCN3CCCC3)cc2)cn1`: the IC90 is more than 10 µM. Further, under setting [1], the IC50 was more than 10 µM.

`CCCC1NC(=O)N(CC(O)COc2cccc(C(=O)OCC)c2)C1=O` (stereo not given): the IC90 was more than 10 µM. Also, the concentration for half-maximal inhibition (IC50) under setting [1] was more than 10 µM.

Regarding `Cc1ccc(C(=O)NC(c2ccccc2)c2ccccc2)s1`, the IC90 was more than 10 µM. Also, the 50% inhibitory concentration (IC50) under setting [1] was more than 10 µM.

Consider `COc1ccc(Nc2nc(CN3CCN(Cc4ccc(C#N)cc4)CC3)cs2)cc1`, for which the IC90 is more than 10 µM. Moreover, the IC50 under setting [1] is more than 10 µM.

As for `COc1ccc(C(=O)Nc2nc3ccc(C)cn3c2C(=O)NC2CCCC2)cc1`, the IC90 is 8.02 µM. Also, the IC50 (FFLUC_HILL_SLOPE 1.65, FFLUC_R_SQUARED 0.455, HEPG2TOX_HILL_SLOPE 5.25, HEPG2TOX_R_SQUARED 0.908, PBLUC_HILL_SLOPE 10.6, PBLUC_R_SQUARED 0.223, read-out: LUCIFERASE INFECTION ASSAY - IC50) came to 6.52 µM.

Consider `O=C1OC(c2ccc(C(=O)c3ccccc3)cc2)=N/C1=C1\CCCCCN1`, for which the IC90 is more than 10 µM. In addition, the IC50 (HEPG2TOX_HILL_SLOPE 4.29, HEPG2TOX_R_SQUARED 0.683, PBLUC_HILL_SLOPE 20.1, PBLUC_R_SQUARED 0.207, read-out: LUCIFERASE INFECTION ASSAY - IC50) came out at 9.14 µM.

For the compound `O=c1c(-c2cccc(Cl)c2)c[nH]n1-c1cccc(C(F)(F)F)c1`, the concentration for an effect of 90% (IC90) is more than 9.74 µM. Under “HEPG2TOX_HILL_SLOPE 3.35, HEPG2TOX_R_SQUARED 0.846, PBLUC_HILL_SLOPE 3.63, PBLUC_R_SQUARED 0.619, read-out: LUCIFERASE INFECTION ASSAY - IC50”, the half-maximal inhibitory concentration (IC50) was determined as 5.69 µM.

For the compound `CC(=O)c1cccc(-c2ccc3ncc(-c4ccoc4)n3n2)c1`, the concentration for an effect of 90% (IC90) was more than 10 µM. Under setting [1], the half-maximal inhibitory concentration (IC50) was more than 10 µM.
